Experiments:
hPAOX = hPAOX (Homo sapiens (Human), UniProt Q6QHF9); test: Human PAOX assay (HyPerBlu chemiluminescent detection of hydrogen peroxide); type: biochemical; details: 60 pM recombinant PAOX, 20 μM N-acetylspermine substrate
Method in brief: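 His-tagged recombinant PAOX expressed in sf9 insect cells was used at 60 pM, with 20 μM N-acetylspermine as substrate. Hydrogen peroxide formed by the reaction was detected by chemiluminescence from a boronate probe (HyPerBlu). Inhibition appears as lower luminescence.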

SMOX [1] = molecular target: T1, SMOX (Homo sapiens (Human), UniProt Q9NWM0); test: Cellular Thermal Shift Assay (CETSA) with alphaLISA detection of intact SMOX in A549 cells; type: cell-based; details: 1 hour compound incubation at 37° C., heated to 55° C. for 5 minutes
From the text: The Cellular Thermal Shift Assay (CETSA) is a biophysical assay based on the principle of ligand-induced thermal stabilization of target proteins, meaning that a protein denaturing temperature will change upon ligand interaction. Thus, by heating samples (i.e. cells, ex vivo samples) to different temperatures, and quantifying conformationally intact proteins we can detect compound-protein interactions after compound treatment. CETSA allows direct monitoring of ligand binding to a specific target (target engagement). In our study, we have developed a suitable detection system that will detect intact SMOX using the alphaLISA. […] The detection of compound -SMOX ligand binding is performed using A549 cells. This adenocarcinoma human alveolar basal epithelial cell line expresses high levels of SMOX. Their use has been widely reported in the literature with respect to the investigation of the SMOX pathway. Using SMOX high-expressing cells with CETSA and alphaLISA systems provides the optimal platform for screening small molecules for SMOX inhibition.
A549 cells were seeded at a density of 0.05-0.1×10^6 cells/mL in T175 flasks and cultured in 25 mL of culture medium consisting in RPMI 1640 medium (Gibco) supplemented with 10% fetal bovine serum (Gibco). Cells were passaged twice per week and used for CETSA assays before reaching confluency. One day prior to the CETSA cells were seeded in 384-well white assay plates (Corning) at 15000 cells per well. Briefly, cells were washed with PBS (Life Technologies Europe BV) and dissociated by adding 2 mL TrypLE™ Select (Life Technologies Europe BV). After 5 min at 37° C., cells were resuspended in culture medium, counted using a ViCell XR cell counter (ViCell) and seeded in the 384-well plates.
Compounds were pre-diluted in PBS to a final concentration of […] and 1% DMSO and serially diluted in PBS 1% DMSO. For compound-cell incubation, medium in the 384 well plates was replaced with 30 μL of serially diluted compounds. After incubation at 37° C. for 1 hour the liquid was removed and plates were heated to 55° C. for 5 minutes and then transferred to ice for 5 minutes. After the cooling step, cells were lysed by adding 15 μL 1× alphaLISA-buffer (Perkin Elmer) containing anti-SMOX monoclonal antibody #2 and anti-SMOX Fab-fragment #33 mixture at a concentration of 5 and 0.5 nM respectively. After one hour at RT, 5 μL anti-6×His alphaLISA acceptor beads (50 mg/L, AL128C, Perkin Elmer) were added to the wells followed by an additional incubation of one hour at RT. Then 5 μL anti-rabbit IgG alpha donor beads (200 mg/L was added to the wells. After one hour incubation at RT the alpha signal was read using an alpha compatible reader. MDL75257 (M2949, Sigma) was used as positive control for compound-SMOX interaction. Compound-SMOX interaction is detected through the comparison of the high alpha signal of the negative control with the much lower signal of the wells that contain SMOX binding compounds.

SMOX [2] = molecular target: T1, SMOX; test: Human SMOX assay (HyPerBlu chemiluminescent detection of hydrogen peroxide); type: biochemical; details: 2.5 nM full length hSMOX, spermine substrate, 1 h at room temperature, luminescence read; read-out: SMOx_IC50
Method in brief: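 Full-length N-His human SMOX (2.5 nM, E. coli-expressed) was incubated 1 h at room temperature with 30 µM spermine, 11-point compound dilutions and 1.25% DMSO in pH 7.4 HEPES/NaCl/EGTA buffer. H2O2 was detected by HyPerBlu chemiluminescence after 30 min, and IC50 came from dose–response fits.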

hPAOX, sequence (Q6QHF9 whole entry): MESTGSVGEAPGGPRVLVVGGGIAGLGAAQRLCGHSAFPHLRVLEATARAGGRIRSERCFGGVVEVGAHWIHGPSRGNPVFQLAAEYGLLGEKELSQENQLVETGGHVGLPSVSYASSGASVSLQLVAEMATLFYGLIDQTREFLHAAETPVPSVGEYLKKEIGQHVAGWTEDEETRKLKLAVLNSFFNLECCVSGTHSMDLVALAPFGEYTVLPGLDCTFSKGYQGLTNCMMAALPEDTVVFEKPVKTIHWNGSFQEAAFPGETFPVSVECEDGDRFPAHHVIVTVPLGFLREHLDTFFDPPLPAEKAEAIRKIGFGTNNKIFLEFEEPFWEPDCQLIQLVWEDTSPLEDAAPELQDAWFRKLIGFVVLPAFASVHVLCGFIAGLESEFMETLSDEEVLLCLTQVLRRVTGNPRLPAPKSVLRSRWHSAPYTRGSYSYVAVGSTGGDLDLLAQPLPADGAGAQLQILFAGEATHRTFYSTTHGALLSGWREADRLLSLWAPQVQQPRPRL
T1 sequence (Q9NWM0 whole entry): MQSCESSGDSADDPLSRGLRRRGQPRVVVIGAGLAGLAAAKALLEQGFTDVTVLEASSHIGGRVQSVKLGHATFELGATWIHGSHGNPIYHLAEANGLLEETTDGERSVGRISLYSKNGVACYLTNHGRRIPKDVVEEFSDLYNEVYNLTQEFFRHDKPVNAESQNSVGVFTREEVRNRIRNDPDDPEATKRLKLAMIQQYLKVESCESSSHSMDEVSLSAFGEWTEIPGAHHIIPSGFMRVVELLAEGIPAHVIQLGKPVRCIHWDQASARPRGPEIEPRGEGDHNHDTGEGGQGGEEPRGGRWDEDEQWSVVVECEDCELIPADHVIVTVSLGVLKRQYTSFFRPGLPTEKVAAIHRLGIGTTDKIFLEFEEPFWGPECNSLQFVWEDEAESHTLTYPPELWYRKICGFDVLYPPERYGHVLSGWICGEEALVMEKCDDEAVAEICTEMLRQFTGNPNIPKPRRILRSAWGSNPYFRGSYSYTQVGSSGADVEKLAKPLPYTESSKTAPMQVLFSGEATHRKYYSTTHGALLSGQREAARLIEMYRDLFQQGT

Row | Structure (SMILES) | IC50 (hPAOX) | SMOx % recovery CETSA (SMOX [1]) | IC50 (SMOX [2])
1 | O=C(NCCCn1ccnc1)c1cc2nc(-c3ccccc3)cc(-c3ccccc3)n2n1 [Example 43, N-(3-(1H-Imidazol-1-yl)propyl)-5,7-diphenylpyrazolo[1,5-a]pyrimidine-2-carboxamide] | 739 nM | 74% | 10 nM
2 | O=C(NCCCn1ccnc1)c1cc2nc(-c3ccccc3)cc(N3CCCCC3)n2n1 [Example 58, N-(3-(1H-Imidazol-1-yl)propyl)-5-phenyl-7-(piperidin-1-yl)pyrazolo[1,5-a]pyrimidine-2-carboxamide] | 6850 nM | 29% | 24 nM
3 | O=C(NCCCn1ccnc1)c1cc2nc(-c3ccccc3)cc(N3CCCC(F)C3)n2n1 (centres unmarked) [Example 62, N-(3-(1H-Imidazol-1-yl)propyl)-7-(3-fluoropiperidin-1-yl)-5-phenylpyrazolo[1,5-a]pyrimidine-2-carboxamide] | 6040 nM | 87% | 49 nM
4 | O=C(NCCn1ccnc1)c1cc2nc(-c3ccccc3)cc(-c3ccccc3)n2n1 [Example 12, N-(2-(1H-Imidazol-1-yl)ethyl)-5,7-diphenylpyrazolo[1,5-a]pyrimidine-2-carboxamide] | 233 nM | 0% | 231 nM
5 | O=C(NCCCc1c[nH]cn1)c1cc2nc(-c3ccccc3)cc(-c3ccccc3)n2n1 [Example 27, N-(3-(1H-Imidazol-4-yl)propyl)-5,7-diphenylpyrazolo[1,5-a]pyrimidine-2-carboxamide] | 49 nM | 43% | 15 nM
6 | CC(C)Nc1cc(-c2ccccc2)nc2cc(C(=O)NCCCn3ccnc3)nn12 [Example 57, N-(3-(1H-Imidazol-1-yl)propyl)-7-(isopropylamino)-5-phenylpyrazolo[1,5-a]pyrimidine-2-carboxamide] | 4440 nM | 1% | 176 nM
7 | O=C(NCCCn1ccnc1)c1cc2nc(-c3ccccc3)cc(N3CCC(F)CC3)n2n1 [Example 63, N-(3-(1H-Imidazol-1-yl)propyl)-7-(4-fluoropiperidin-1-yl)-5-phenylpyrazolo[1,5-a]pyrimidine-2-carboxamide] | 2330 nM | 6% | 241 nM
8 | Cn1ccnc1CCCNC(=O)c1cc2nc(-c3ccccc3)cc(-c3ccccc3)n2n1 [Example 1, N-(3-(1-Methyl-1H-imidazol-2-yl)propyl)-5,7-diphenylpyrazolo[1,5-a]pyrimidine-2-carboxamide] | 397 nM | 12% | 46 nM
9 | CN(C)CCCNC(=O)c1cc2nc(-c3ccccc3)cc(-c3ccccc3)n2n1 [Example 18, N-(3-(Dimethylamino)propyl)-5,7-diphenylpyrazolo[1,5-a]pyrimidine-2-carboxamide] | 680 nM | 0% | 161 nM
10 | CCN1CCC[C@@H]1CNC(=O)c1cc2nc(-c3ccccc3)cc(-c3ccccc3)n2n1 [Example 15, (R)—N-((1-Ethylpyrrolidin-2-yl)methyl)-5,7-diphenylpyrazolo[1,5-a]pyrimidine-2-carboxamide] | 6320 nM | 4% | 192 nM
11 | Cc1nccn1CCCNC(=O)c1cc2nc(-c3ccccc3)cc(-c3ccccc3)n2n1 [Example 2, N-(3-(2-Methyl-1H-imidazol-1-yl)propyl)-5,7-diphenylpyrazolo[1,5-a]pyrimidine-2-carboxamide] | 942 nM | 26% | 45 nM
12 | CN1CCC(CNC(=O)c2cc3nc(-c4ccccc4)cc(-c4ccccc4)n3n2)C1 (centres unmarked) [Example 19, N-((1-Methylpyrrolidin-3-yl)methyl)-5,7-diphenylpyrazolo[1,5-a]pyrimidine-2-carboxamide] | 307 nM | 2% | 158 nM
13 | O=C(NCCc1ccncc1)c1cc2nc(-c3ccccc3)cc(-c3ccccc3)n2n1 [Example 38, 5,7-Diphenyl-N-(2-(pyridin-4-yl)ethyl)pyrazolo[1,5-a]pyrimidine-2-carboxamide] | 1140 nM |  | 4580 nM
14 | CN1CCC(NC(=O)c2cc3nc(-c4ccccc4)cc(-c4ccccc4)n3n2)C1 (centres unmarked) [Example 6, N-(1-Methylpyrrolidin-3-yl)-5,7-diphenylpyrazolo[1,5-a]pyrimidine-2-carboxamide] | 4950 nM |  | 230 nM

Results, then the molecule that gave them:

Row | IC50 (hPAOX) | SMOx % recovery CETSA (SMOX [1]) | IC50 (SMOX [2]) | Structure (SMILES)
15 | 520 nM | 20% | 239 nM | CN1CC(NC(=O)c2cc3nc(-c4ccccc4)cc(-c4ccccn4)n3n2)C1 [Example 92, N-(1-methylazetidin-3-yl)-5-phenyl-7-(pyridin-2-yl)pyrazolo[1,5-a]pyrimidine-2-carboxamide]
16 | 123 nM | 0% | 122 nM | Cc1cccc(-c2cc(-c3ccccc3)nc3cc(C(=O)NCCCn4ccnc4)nn23)c1 [Example 81, N-(3-(1H-imidazol-1-yl)propyl)-5-phenyl-7-(m-tolyl)pyrazolo[1,5-a]pyrimidine-2-carboxamide]
17 | 2920 nM | 52% | 58 nM | O=C(NCCCn1ccnc1)c1cc2nc(-c3ccccc3)cc(C3CCCCO3)n2n1 (centres unmarked) [Example 111, N-(3-(1H-imidazol-1-yl)propyl)-5-phenyl-7-(tetrahydro-2H-pyran-2-yl)pyrazolo[1,5-a]pyrimidine-2-carboxamide]
18 | 1610 nM | 3% | 78 nM | N#Cc1ccc(-c2cc(-c3ccccc3)nc3cc(C(=O)NCCCn4ccnc4)nn23)cc1 [Example 90, N-(3-(1H-imidazol-1-yl)propyl)-7-(4-cyanophenyl)-5-phenylpyrazolo[1,5-a]pyrimidine-2-carboxamide]
19 | 2050 nM | 111% | 43 nM | O=C(NCCCn1ccnc1)c1cc2nc(-c3ccccc3)cc(-c3ccccn3)n2n1 [Example 91, N-(3-(1H-imidazol-1-yl)propyl)-5-phenyl-7-(pyridin-2-yl)pyrazolo[1,5-a]pyrimidine-2-carboxamide]
20 | 1570 nM | 0% | 102 nM | O=C(NCCCn1ccnc1)c1cc2nc(-c3ccccc3)cc(-c3ccc(O)cc3)n2n1 [Example 88, N-(3-(1H-imidazol-1-yl)propyl)-7-(4-hydroxyphenyl)-5-phenylpyrazolo[1,5-a]pyrimidine-2-carboxamide]
21 | 879 nM | 0% | 159 nM | N#Cc1cccc(-c2cc(-c3ccccc3)nc3cc(C(=O)NCCCn4ccnc4)nn23)c1 [Example 89, N-(3-(1H-imidazol-1-yl)propyl)-7-(3-cyanophenyl)-5-phenylpyrazolo[1,5-a]pyrimidine-2-carboxamide]
22 | > 31200 nM |  | 4590 nM | CN1CC(NC(=O)c2cc3nc(N4CCCC4)cc(-c4ccccc4)n3n2)C1 [Example 98, N-(1-methylazetidin-3-yl)-7-phenyl-5-(pyrrolidin-1-yl)pyrazolo[1,5-a]pyrimidine-2-carboxamide]
23 | 387 nM |  | 303 nM | O=C(NCCCn1ccnc1)c1cc2nc(-c3ccccc3)cc(-c3cccc(O)c3)n2n1 [Example 87, N-(3-(1H-imidazol-1-yl)propyl)-7-(3-hydroxyphenyl)-5-phenylpyrazolo[1,5-a]pyrimidine-2-carboxamide]

Source: patent publication US20250161307A1, “PYRAZOLOPYRIMIDINES AS MODULATORS OF SPERMINE OXIDASE” (Janssen Pharmaceutica NV, priority 2022, published 2025)
